This passage reports % of control results from ChEMBL document CHEMBL5465560, “Selectivity Literature for EUbOPEN Chemogenomic Library” (2024).

In assay [1] the target is Ribosomal protein S6 kinase alpha-2 (Homo sapiens) (UniProt Q15349). Nature of the assay: Selectivity interaction (Ambit KINOMEscan and KiNATiv profiling in Jurkat cells) EUB0000090b RPS6KA2. Type of assay: cell-based. The note with it: at 1 µM.
Assay [2] concerns the target Ribosomal protein S6 kinase alpha-6 (Homo sapiens, UniProt Q9UK32). Nature of the assay: Selectivity interaction (Ambit KINOMEscan and KiNATiv profiling in Jurkat cells) EUB0000090b RPS6KA6. It counts as cell-based. The note with it: at 1 µM.
In assay [3] the target is T1, Myosin-IIIb (Homo sapiens) (UniProt Q8WXR4).
T1 sequence (whole entry): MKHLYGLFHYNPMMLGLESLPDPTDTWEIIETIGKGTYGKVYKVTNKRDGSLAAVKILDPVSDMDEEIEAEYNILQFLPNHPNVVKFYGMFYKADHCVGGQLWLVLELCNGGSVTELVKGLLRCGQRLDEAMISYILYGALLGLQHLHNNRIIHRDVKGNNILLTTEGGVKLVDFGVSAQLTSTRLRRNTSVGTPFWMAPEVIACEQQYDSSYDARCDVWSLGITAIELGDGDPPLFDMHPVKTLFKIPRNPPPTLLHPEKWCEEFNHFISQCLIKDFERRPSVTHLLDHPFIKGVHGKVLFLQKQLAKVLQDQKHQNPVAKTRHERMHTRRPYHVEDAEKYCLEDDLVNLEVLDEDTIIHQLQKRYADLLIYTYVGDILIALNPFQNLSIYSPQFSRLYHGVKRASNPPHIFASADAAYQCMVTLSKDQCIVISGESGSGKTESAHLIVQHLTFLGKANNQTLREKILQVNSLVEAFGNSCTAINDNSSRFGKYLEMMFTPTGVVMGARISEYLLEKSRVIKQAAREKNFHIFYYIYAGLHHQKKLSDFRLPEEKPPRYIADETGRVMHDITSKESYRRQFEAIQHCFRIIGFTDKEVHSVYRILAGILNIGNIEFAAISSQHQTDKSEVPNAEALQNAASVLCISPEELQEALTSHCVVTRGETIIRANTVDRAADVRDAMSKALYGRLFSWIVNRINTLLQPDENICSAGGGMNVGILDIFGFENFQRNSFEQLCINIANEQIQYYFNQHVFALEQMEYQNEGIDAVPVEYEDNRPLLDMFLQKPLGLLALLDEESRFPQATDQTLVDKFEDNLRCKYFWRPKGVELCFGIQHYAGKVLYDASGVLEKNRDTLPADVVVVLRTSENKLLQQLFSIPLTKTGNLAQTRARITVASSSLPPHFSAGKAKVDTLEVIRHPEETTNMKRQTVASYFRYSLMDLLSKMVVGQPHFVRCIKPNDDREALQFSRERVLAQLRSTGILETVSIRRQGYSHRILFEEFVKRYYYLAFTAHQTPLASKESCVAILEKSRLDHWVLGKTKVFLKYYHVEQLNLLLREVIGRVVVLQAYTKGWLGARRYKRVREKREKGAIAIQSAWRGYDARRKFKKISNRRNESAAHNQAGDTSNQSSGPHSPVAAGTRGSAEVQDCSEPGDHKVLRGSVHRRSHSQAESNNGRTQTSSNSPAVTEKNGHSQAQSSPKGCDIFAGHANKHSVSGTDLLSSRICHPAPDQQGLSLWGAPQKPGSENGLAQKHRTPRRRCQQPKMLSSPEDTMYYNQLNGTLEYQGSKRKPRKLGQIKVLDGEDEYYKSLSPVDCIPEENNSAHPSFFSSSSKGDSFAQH
Description: Selectivity interaction (KinomeScan (DiscoverX)) EUB0001049a MYO3B. The conditions noted are these: at 1 µM.

Assay [4] addresses T2, MAP/microtubule affinity-regulating kinase 4 (Homo sapiens) (UniProt Q96L34).
T2 sequence (whole entry): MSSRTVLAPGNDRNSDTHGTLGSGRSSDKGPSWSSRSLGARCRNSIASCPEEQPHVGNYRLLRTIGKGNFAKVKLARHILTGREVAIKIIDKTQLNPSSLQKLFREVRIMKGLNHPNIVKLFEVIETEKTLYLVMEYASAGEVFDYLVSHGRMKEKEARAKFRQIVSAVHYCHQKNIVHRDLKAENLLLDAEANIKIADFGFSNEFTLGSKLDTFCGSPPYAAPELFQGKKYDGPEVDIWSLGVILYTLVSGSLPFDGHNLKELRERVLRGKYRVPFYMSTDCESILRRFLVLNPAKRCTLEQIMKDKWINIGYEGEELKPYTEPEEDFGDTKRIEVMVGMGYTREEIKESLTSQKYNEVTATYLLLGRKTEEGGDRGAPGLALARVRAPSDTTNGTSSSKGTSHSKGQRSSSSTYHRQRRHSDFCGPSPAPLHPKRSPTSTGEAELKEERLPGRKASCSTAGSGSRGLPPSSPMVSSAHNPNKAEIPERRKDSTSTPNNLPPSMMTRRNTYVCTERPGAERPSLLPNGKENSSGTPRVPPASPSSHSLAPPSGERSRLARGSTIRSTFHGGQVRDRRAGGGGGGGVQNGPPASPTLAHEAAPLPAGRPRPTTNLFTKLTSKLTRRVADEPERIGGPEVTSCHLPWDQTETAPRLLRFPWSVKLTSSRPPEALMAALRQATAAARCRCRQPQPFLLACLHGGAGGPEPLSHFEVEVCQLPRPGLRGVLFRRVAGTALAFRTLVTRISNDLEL
Nature of the assay: Selectivity interaction (KinomeScan (DiscoverX)) EUB0000666a MARK4. The conditions noted are these: at 10 µM.

In assay [5] the target is Dual specificity protein kinase CLK3 (Homo sapiens, UniProt P49761). Nature of the assay: Selectivity interaction (KinomeScan (DiscoverX)) EUB0001619a CLK3. The conditions noted are these: at 1 µM.
A further assay addresses Misshapen-like kinase 1 (Homo sapiens, UniProt Q8N4C8). Nature of the assay: Selectivity interaction (KinomeScan (DiscoverX)) EUB0000618a MINK1. The note with it: at 10 µM.

Sequence of Ribosomal protein S6 kinase alpha-6 (Q9UK32 whole entry): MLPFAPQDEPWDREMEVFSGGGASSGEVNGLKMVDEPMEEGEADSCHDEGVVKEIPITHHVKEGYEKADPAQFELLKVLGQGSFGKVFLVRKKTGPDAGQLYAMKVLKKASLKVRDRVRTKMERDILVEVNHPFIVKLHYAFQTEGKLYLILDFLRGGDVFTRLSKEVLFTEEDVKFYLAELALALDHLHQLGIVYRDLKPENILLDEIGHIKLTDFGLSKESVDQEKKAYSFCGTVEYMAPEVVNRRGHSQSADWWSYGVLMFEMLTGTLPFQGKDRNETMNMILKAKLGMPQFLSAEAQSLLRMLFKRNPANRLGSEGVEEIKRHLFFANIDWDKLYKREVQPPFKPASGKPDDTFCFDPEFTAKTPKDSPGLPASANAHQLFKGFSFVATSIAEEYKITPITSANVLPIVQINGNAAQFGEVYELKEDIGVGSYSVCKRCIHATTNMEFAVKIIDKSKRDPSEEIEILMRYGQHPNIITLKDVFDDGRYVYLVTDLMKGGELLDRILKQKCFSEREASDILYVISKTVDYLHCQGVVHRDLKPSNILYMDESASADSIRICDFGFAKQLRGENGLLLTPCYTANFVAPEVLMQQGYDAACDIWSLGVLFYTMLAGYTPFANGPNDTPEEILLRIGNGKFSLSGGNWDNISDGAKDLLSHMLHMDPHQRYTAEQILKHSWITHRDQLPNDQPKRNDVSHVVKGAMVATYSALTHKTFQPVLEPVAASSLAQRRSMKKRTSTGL
Sequence of Misshapen-like kinase 1 (Q8N4C8 whole entry, looked up): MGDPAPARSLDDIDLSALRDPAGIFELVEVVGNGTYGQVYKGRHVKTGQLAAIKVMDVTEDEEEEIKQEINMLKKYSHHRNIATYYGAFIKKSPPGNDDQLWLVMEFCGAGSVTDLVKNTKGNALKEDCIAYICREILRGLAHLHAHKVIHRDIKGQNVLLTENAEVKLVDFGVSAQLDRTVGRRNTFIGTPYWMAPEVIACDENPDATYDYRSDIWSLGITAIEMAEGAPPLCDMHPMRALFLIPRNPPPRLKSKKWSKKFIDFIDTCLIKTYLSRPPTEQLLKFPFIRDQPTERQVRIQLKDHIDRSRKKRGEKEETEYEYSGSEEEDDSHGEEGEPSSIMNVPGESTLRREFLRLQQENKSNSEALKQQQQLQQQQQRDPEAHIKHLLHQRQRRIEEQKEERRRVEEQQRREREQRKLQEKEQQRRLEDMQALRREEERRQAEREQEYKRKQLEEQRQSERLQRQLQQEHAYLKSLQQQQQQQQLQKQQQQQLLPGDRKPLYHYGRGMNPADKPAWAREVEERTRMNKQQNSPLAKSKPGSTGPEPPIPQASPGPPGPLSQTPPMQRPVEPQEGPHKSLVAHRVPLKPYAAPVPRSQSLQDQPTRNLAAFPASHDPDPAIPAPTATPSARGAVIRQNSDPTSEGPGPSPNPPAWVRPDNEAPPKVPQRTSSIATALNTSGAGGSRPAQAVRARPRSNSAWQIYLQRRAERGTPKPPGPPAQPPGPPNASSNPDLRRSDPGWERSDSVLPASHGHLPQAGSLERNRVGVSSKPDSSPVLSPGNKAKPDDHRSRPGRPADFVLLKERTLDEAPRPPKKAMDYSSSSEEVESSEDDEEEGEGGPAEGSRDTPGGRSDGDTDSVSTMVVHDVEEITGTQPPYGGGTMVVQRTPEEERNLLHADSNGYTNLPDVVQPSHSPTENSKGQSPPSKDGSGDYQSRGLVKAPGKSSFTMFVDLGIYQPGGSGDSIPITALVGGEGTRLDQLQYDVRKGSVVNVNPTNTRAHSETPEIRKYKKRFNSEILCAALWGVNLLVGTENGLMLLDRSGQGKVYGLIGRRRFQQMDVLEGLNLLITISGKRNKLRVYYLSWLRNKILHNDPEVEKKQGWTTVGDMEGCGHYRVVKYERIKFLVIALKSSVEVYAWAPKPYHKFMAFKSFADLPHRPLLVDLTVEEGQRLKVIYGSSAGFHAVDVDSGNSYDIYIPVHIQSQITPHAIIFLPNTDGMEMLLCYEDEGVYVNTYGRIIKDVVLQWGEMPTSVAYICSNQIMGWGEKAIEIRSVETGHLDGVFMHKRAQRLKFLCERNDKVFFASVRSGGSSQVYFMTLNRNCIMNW
Sequence of Ribosomal protein S6 kinase alpha-2 (Homo sapiens) (Q15349 whole entry): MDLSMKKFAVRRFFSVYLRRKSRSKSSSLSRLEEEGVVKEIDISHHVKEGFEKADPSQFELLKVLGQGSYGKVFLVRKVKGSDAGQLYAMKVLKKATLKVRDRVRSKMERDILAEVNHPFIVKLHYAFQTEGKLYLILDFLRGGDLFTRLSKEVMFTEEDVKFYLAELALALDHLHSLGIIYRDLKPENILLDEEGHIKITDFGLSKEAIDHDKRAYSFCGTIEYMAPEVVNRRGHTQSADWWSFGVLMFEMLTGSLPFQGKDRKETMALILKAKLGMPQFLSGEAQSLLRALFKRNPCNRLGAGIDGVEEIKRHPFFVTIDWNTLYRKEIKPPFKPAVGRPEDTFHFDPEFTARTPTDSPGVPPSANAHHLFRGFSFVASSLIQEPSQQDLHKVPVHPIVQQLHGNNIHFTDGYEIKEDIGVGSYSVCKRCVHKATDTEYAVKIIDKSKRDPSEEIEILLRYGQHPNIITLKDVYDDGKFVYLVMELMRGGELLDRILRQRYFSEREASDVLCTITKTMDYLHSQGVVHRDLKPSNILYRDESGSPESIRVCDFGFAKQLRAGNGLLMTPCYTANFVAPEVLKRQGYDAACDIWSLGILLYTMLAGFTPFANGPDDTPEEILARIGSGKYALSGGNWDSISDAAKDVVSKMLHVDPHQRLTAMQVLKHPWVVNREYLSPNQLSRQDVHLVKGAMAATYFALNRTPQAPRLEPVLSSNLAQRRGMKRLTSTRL
Sequence of Dual specificity protein kinase CLK3 (P49761 whole entry, looked up): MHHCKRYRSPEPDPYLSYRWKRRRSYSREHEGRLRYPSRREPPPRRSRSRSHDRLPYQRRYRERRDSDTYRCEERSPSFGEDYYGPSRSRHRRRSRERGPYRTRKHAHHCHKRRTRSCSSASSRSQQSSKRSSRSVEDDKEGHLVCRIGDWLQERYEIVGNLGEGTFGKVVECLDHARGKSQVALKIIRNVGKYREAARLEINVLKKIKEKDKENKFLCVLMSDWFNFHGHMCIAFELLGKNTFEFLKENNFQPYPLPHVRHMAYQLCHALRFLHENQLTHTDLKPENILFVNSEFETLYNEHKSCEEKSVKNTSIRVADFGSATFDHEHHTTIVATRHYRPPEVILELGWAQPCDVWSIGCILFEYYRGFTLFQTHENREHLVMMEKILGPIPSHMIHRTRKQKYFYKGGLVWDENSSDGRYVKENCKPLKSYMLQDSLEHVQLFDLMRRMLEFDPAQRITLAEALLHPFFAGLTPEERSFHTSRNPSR

Consider `CN(C)C/C=C/C(=O)Nc1ccc(C(=O)N2CCCC(Nc3ncc(Cl)c(-c4c[nH]c5ccccc45)n3)C2)cc1` (stereo unspecified), for which the % of control in assay [1] worked out at 55%; in assay [2], 92%.
In assay [3], `COc1cc(Nc2nc(C)cc(-c3cnn4nc(OC)ccc34)n2)cc(C(F)(F)F)c1` had a % of control of 100%.
In turn, `O=C(NOC[C@H](O)CO)c1ccc(F)c(F)c1Nc1ccc(I)cc1F` registered a % of control in assay [4] of 100%.
In turn, `N#Cc1cccc(-c2c[nH]c3ncnc(N4CCOCC4)c23)c1` showed a % of control in assay [5] of 78%.
`O[C@H]1CC[C@H](Nc2ncc3nc(Nc4c(F)cc(F)cc4F)n([C@H]4CCOC4)c3n2)CC1` gave a % of control on Misshapen-like kinase 1 of 71%.
